In US20110305637A1, “RADIOLABELLED PDE10 LIGANDS” (Janssen Pharmaceutica N.V., priority 2009, published 2011):

Target: T1, PDE10A (Rattus norvegicus, UniProt Q9QYJ6)
T1 construct: from tissue; host or cells: brain (striatum) of living male Wistar rats, in vivo microPET
T1 sequence (Q9QYJ6 1-794): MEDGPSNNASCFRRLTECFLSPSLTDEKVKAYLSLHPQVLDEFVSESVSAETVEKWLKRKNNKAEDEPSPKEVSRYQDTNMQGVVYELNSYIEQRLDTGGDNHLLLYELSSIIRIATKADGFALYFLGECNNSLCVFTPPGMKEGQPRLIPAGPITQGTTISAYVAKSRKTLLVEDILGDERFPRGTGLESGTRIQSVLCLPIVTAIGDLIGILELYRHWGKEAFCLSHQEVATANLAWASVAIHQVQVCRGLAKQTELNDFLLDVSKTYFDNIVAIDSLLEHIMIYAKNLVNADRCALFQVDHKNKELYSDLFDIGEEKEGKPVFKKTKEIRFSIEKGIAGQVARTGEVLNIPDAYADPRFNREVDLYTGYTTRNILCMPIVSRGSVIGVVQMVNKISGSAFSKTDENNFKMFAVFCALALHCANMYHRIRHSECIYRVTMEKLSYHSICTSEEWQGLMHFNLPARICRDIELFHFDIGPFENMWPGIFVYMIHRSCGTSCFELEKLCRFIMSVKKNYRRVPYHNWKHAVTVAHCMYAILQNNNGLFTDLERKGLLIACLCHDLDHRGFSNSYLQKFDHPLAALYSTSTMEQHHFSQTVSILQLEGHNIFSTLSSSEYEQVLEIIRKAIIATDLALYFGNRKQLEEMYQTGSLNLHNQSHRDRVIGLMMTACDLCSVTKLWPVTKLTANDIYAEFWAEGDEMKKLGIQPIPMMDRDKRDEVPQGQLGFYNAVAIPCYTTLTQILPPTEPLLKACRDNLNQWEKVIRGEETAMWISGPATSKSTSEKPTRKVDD
Test: microPET imaging study
Format: in vivo
Method: (§1) Imaging experiments were performed on a Focus™ 220 microPET scanner (Concorde Microsystems, Knoxville, Tenn., USA) using male Wistar rats with body weight between 200 and 300 g. Animals were injected with about 74 MBq of high specific activity formulation of [^18F]B-1 via tail vein under anesthesia (2.5% Isoflurane in O2 at 1 L/min flow rate). Dynamic scans of 90 min were acquired in List mode. Acquisition data were Fourier rebinned in different time frames (4×15 s, 4×1 min, 5×3 min, 14×5 min) and reconstructed with Filtered Back Projection (FBP). An average image (frame 1 to 27) of the reconstructed data was spatially normalized to an in-house created [^11C]raclopride template of the rat brain in Paxinos coordinates. The affine transformation was then used to normalize all time frames of the dynamic dataset to allow automated and symmetric volumes of interest (VOIs) analyses. Time-activity curves (TAC) were generated for striatum, cortex and cerebellum for each individual scan, using PMOD software (v 3.0, PMOD Technologies Ltd., Zurich, Switzerland). The radioactivity concentration in the different brain regions was expressed as standardized uptake value (SUV) as a function of time p.i. of the radiotracer by normalization for body weight of the animal and injected dose. Since PDE10A is expressed at low level in the cerebellum, binding potential (BP) values were calculated using the multilinear reference tissue model developed by Ichise et al. with the cerebellum considered as reference, using the same software (PMOD). Rats (n=5) were used for baseline imaging of which 3 animals were used in pretreatment studies in which the non-radioactive analogue B-1 was administered subcutaneously at a dose of 5 mg/kg at 30 min prior to the radiotracer injection.
Imaging experiments were performed on a Focus™ 220 microPET scanner (Concorde Microsystems, Knoxville, Tenn., USA) using male Wistar rats with body weight between 350 and 480 g. For the baseline microPET study, rats (n=2) were injected with about 74 MBq of high specific activity formulation of [^18F]B-2 via tail vein under anesthesia (2.5% Isoflurane in O2 at 1 L/min flow rate). For the pretreatment experiment, the radioactivity dose was reduced to about 37 MBq. Pretreatment was done by administering the non-radioactive analogue B-2 subcutaneously at a dose of 2.5 mg/kg at 60 min prior to the tracer injection (n=1).
as §1, with “Dynamic” for “Imaging experiments were performed on a Focus™ 220 microPET scanner (Concorde Microsystems, Knoxville, Tenn., USA) using male Wistar rats with body weight between 200 and 300 g. Animals were injected with about 74 MBq of high specific activity formulation of [^18F]B-1 via tail vein under anesthesia (2.5% Isoflurane in O2 at 1 L/min flow rate). Dynamic”, “120” for “90”, “8×5 min, 10×6” for “14×5”, “31)” for “27)”, “(PMOD).” for “(PMOD). Rats (n=5) were used for baseline imaging of which 3 animals were used in pretreatment studies in which the non-radioactive analogue B-1 was administered subcutaneously at a dose of 5 mg/kg at 30 min prior to the radiotracer injection.”

## [18F]CCCn1cc(-c2ccncc2)c(-c2ccc(OCc3ccc4ccccc4n3)cc2)n1 [[^18F]B-1]
B-1, 5 mg/kg s.c., 30 min prior to tracer
  binding potential (BP) value after non-radioactive analogue: 0.11±0.10
baseline
  time at which peak tissue concentrations in the brain were reached: within one minute
baseline, at 15 min post injection
  Peak striatum-to-cerebellum ratio: 2.7
baseline, until about 35 min post injection
  striatum-to-cerebellum ratio: higher than 2.5
baseline, cerebellum as reference
  binding potential (BP) value at baseline: 0.58±0.17
non-radioactive B-1, 5 mg/kg s.c., 30 min prior
  reduction in BP values with pretreatment compared to baseline: about 80%
pre-treated with non-radioactive B-1, 5 mg/kg s.c., 30 min prior
  striatum-to-cerebellum ratio after pre-treatment: 1.5
